This is an account of results in article PMC12120661, “Synthesis and Biological Evaluation of 4‑(4-Nitrophenyl)‑1H‑1,2,3-triazole Derivatives as Antitrypanosomal Agents” (ACS Omega, 2025).

One data set concerns the target trans-sialidase (TcTS). The settings on record: literature, cited from earlier work; for inhibition of trans-sialidase: in words.
Data set [1] is described as follows: Preliminary cytotoxicity assay, resazurin. The class given is cell-based. The settings on record: human MRC-5 cell line, 3 days incubation. On the procedure:
MRC-5SV2 cell cytotoxicity was assessed following the methodology outlined in earlier literature. Briefly, cells at a concentration of 1.5 × 10^5 cells/mL were cultured with compound dilutions at 37 °C and 5% CO2. Cell growth was compared to untreated-control wells (100% cell growth) and medium-control wells (0% cell growth). After 3 days of incubation, cell viability was fluorometrically assessed following the addition of 50-μL resazurin per well. Fluorescence was measured after 4 h at 37 °C (λex 550 nm, λem 590 nm). The results were expressed as the percentage reduction in cell growth/viability compared to control wells, and an IC50 value was determined.
(Alamar Blue is a resazurin reagent that responds to reducing activity.)

Data set [2] concerns T. cruzi Tulahuen CL2 β-galactosidase strain. The data set can be described thus: Antitrypanosomal screening, anti-T. cruzi (trypomastigote) activity, CPRG photometric method. The class given is cell-based. The settings on record: Trypanosoma cruzi; Tulahuen CL2 β-galactosidase strain on MRC-5SV2; values in parentheses mean ± SEM of two experiments. As for the experimental part:
A preliminary assay was conducted to evaluate the analogs’ in vitro cytotoxicity and antitrypanosomatid activity against T. cruzi Tulahuen strain (Table ). […] However, the promising results of analog 16 encouraged us to conduct more in-depth studies on this compound.
Anti-parasitic assays were conducted following established protocols outlined in earlier literature. In brief, for assessing anti-T. cruzi activity, the Tulahuen CL2 β-galactosidase strain (nifurtimox-sensitive) was employed and maintained on MRC-5SV2 (human lung fibroblast). A total of 4 × 10^3 cells were infected with 4 × 10^4 parasites per well. The synthesized analogs were tested at concentrations ranging from 1.56 to 50.00 μM. Parasite burdens were evaluated after the addition of the substrate CPRG (chlorophenol red ß-D-galactopyranoside). The change in color was measured spectrophotometrically at 540 nm after 4 h of incubation at 37°C. In all assays, parasite growth was compared to untreated-infected controls (100% growth) and noninfected controls (0% growth). Results were expressed as the percentage of parasite reduction at different drug concentrations and used to calculate IC50 values from the dose–response curves.

A short description of data set [3]: Cytotoxicity against primary mouse macrophages. The class given is cell-based. The text has this:
1 In Vitro Anti- T. cruzi (Trypomastigote) Activity and Cytotoxicity Assessment of Hit 1 Analogs ^a | column: PMM CC50 (μM)

Where [4] appears, read: mouse, primary mouse macrophages (PMM).

Molecules are shown by their SMILES. Read-outs that look alike come from different tables or passages of the source.

By CC50 is commonly meant the concentration at which the toxic effect on the cells reaches its halfway point. Usually IC50 stands for the concentration that inhibits the measured activity by half.

As to `CC(=O)NC1C(O)C(F)C(F)(C(=O)O)OC1C(O)C(O)CO` (stereo not shown) [2,3-difluorosialic acid], the Ki at trans-sialidase (TcTS) (irreversible inhibitors) was 20000 µM.
Regarding `O=C(Cn1cc(-c2ccc([N+](=O)[O-])cc2)nn1)NCc1ccccn1` [Compound 10, 2-(4-(4-Nitrophenyl)-1H-1,2,3-triazol-1-yl)-N-(yridine-2-ylmethyl)acetamide], the CC50 at 3 days in data set [1] (MRC-5SV2 lung fibroblast cells) is > 50 µM. The 50% inhibitory concentration (IC50) in data set [2] is > 50 µM. The CC50 in data set [3] (setting [4]) is > 50 µM.
For the compound `O=C(Cn1cc(-c2ccc([N+](=O)[O-])cc2)nn1)NCc1cccnc1` [Compound 11, 2-(4-(4-Nitrophenyl)-1H-1,2,3-triazol-1-yl)-N-((pyridin-3-yl)methyl)acetamide], in data set [1] (MRC-5SV2 lung fibroblast cells), the CC50 at 3 days was > 50 µM. In addition, in data set [2], the IC50 was > 50 µM. The CC50 in data set [3] (setting [4]) is > 50 µM.
On to `O=C(Cn1cc(-c2ccc([N+](=O)[O-])cc2)nn1)NCc1ccc(O)cc1` [Compound 12, N-(4-Hydroxybenzyl)-2-(4-(4-nitrophenyl)-1H-1,2,3-triazol-1-yl)acetamide], for which, in data set [1] (MRC-5SV2 lung fibroblast cells), the CC50 at 3 days is > 50 µM. For the same compound, the IC50 in data set [2] came out at 31 µM. For the same compound, the CC50 in data set [3] (setting [4]) is > 50 µM.
For the compound `N#Cc1ccc(CNC(=O)Cn2cc(-c3ccc([N+](=O)[O-])cc3)nn2)cc1` [Compound 13, N-(4-Cyanobenzyl)-2-(4-(4-nitrophenyl)-1H-1,2,3-triazol-1-yl)acetamide], the CC50 at 3 days in data set [1] (MRC-5SV2 lung fibroblast cells) was > 50 µM. For the same compound, the IC50 in data set [2] was > 50 µM. Further, the CC50 in data set [3] (setting [4]) was found to be 35.4 µM.
Consider `N#Cc1ccc(Cn2cc(-c3ccc([N+](=O)[O-])cc3)nn2)cc1` [Compound 15, 4-((4-(4-Nitrophenyl)-1H-1,2,3-triazol-1-yl)methyl)benzonitrile], for which the CC50 at 3 days in data set [1] (MRC-5SV2 lung fibroblast cells) is > 50 µM. Also, the IC50 in data set [2] is > 50 µM. In addition, in data set [3] (setting [4]), the CC50 was > 50 µM.
Regarding `O=C(O)Cn1cc(-c2ccc([N+](=O)[O-])cc2)nn1` [Compound 17, 2-(4-(4-Nitrophenyl)-1H-1,2,3-triazol-1-yl)acetic Acid], the CC50 at 3 days in data set [1] (MRC-5SV2 lung fibroblast cells) was > 50 µM. Further, the IC50 in data set [2] is > 50 µM. Moreover, the CC50 in data set [3] (setting [4]) was > 50 µM.
In the case of `O=C(O)c1ccc(Cn2cc(-c3ccc([N+](=O)[O-])cc3)nn2)cc1` [Compound 18, 4-((4-(4-Nitrophenyl)-1H-1,2,3-triazol-1-yl)methyl)benzoic Acid], the CC50 at 3 days in data set [1] (MRC-5SV2 lung fibroblast cells) is > 50 µM. Further, the IC50 in data set [2] was > 50 µM. The CC50 in data set [3] (setting [4]) was > 50 µM.
Regarding `O=[N+]([O-])c1ccc(Cn2cc(-c3ccc(CO)cc3)nn2)cc1` [Compound 21, (4-(1-(4-Nitrobenzyl)-1H-1,2,3-triazol-4-yl)phenyl)methanol], in data set [1] (MRC-5SV2 lung fibroblast cells), the CC50 at 3 days is > 50 µM. For the same compound, the IC50 in data set [2] was > 50 µM. For the same compound, the 50% cytotoxic concentration (CC50) in data set [3] (setting [4]) is > 50 µM.
`O=[N+]([O-])c1ccc(Cn2cc(-c3cccnc3)nn2)cc1` [Compound 22, 3-(1-(4-Nitrobenzyl)-1H-1,2,3-triazol-4-yl)pyridine] displayed a CC50 at 3 days in data set [1] (MRC-5SV2 lung fibroblast cells) of 5.06 µM. Also, the IC50 in data set [2] was found to be 4.17 µM. Further, the CC50 in data set [3] (setting [4]) was > 50 µM.
On to `Nc1ccc(-c2cn(Cc3ccc([N+](=O)[O-])cc3)nn2)cc1` [Compound 23, 4-(1-(4-Nitrobenzyl)-1H-1,2,3-triazol-4-yl)aniline], for which, in data set [1] (MRC-5SV2 lung fibroblast cells), the CC50 at 3 days is > 50 µM. For the same compound, the IC50 in data set [2] was > 50 µM. Also, the CC50 in data set [3] (setting [4]) was > 50 µM.
In the case of `O=[N+]([O-])c1ccc(Cn2cc(-c3ccc([N+](=O)[O-])cc3)nn2)cc1` [Compound 24, 1-(4-Nitrobenzyl)-4-(4-nitrophenyl)-1H-1,2,3-triazole], the CC50 at 3 days in data set [1] was > 50 µM. The IC50 in data set [2] is > 50 µM. Moreover, in data set [3] (primary mouse macrophages, read-out: PMM CC50), the CC50 is > 50 µM.
With `Cn1cncc1-c1cn(Cc2ccc([N+](=O)[O-])cc2)nn1` [Compound 25, 4-(1-Methyl-1H-imidazol-5-yl)-1-(4-nitrobenzyl)-1H-1,2,3-triazole], in data set [1] (MRC-5SV2 lung fibroblast cells), the CC50 at 3 days was > 50 µM. Besides, the IC50 in data set [2] is > 50 µM. Moreover, the half-maximal cytotoxic concentration (CC50) in data set [3] (setting [4]) is > 50 µM.
For the compound `COc1cccc(-c2cn(Cc3ccc([N+](=O)[O-])cc3)nn2)c1` [Compound 26, 4-(3-Methoxyphenyl)-1-(4-nitrobenzyl)-1H-1,2,3-triazole], in data set [1] (MRC-5SV2 lung fibroblast cells), the CC50 at 3 days was > 50 µM. Further, the IC50 in data set [2] is > 50 µM. Also, the CC50 in data set [3] (setting [4]) was > 50 µM.
`O=[N+]([O-])c1ccc(Cn2cc(-c3ccccc3CO)nn2)cc1` [Compound 27, (2-(1-(4-Nitrobenzyl)-1H-1,2,3-triazol-4-yl)phenyl)methanol]: the CC50 at 3 days in data set [1] (MRC-5SV2 lung fibroblast cells) is > 50 µM. Moreover, the IC50 in data set [2] was > 50 µM. For the same compound, the CC50 in data set [3] (setting [4]) is > 50 µM.
On to `COc1cc(OC)cc(-c2cn(Cc3ccc([N+](=O)[O-])cc3)nn2)c1` [Compound 28, 4-(3,5-Dimethoxyphenyl)-1-(4-nitrobenzyl)-1H-1,2,3-triazole], for which the CC50 at 3 days in data set [1] (MRC-5SV2 lung fibroblast cells) is > 50 µM. In addition, the IC50 in data set [2] was > 50 µM. For the same compound, the CC50 in data set [3] (setting [4]) is > 50 µM.
Regarding `CCOC(=O)C1=C[C@@H](OC(CC)CC)[C@H](NC(C)=O)[C@@H](N)C1` [Oseltamivir], the inhibition of trans-sialidase entry with trans-sialidase (TcTS) was “weak inhibition of trans-sialidase in the millimolar range”.
On to `CC(=O)N[C@H]1[C@H]([C@H](O)[C@H](O)CO)OC(C(=O)O)=C[C@@H]1N=C(N)N` [Zanamivir], for which, in the data set with trans-sialidase (TcTS), the inhibition of trans-sialidase entry was “weak inhibition of trans-sialidase in the millimolar range”.
`OC[C@@H](O)[C@@H](O[C@@H]1O[C@H](CO)[C@H](O)[C@H](O)[C@H]1O)[C@H](O)[C@@H](O)CO` [lactitol]: the IC50 on trans-sialidase (TcTS) (acceptor analog) was 570 µM.
